Values of other authors in PubChem BioAssay AID1259409 (Chemical Carcinogenesis Research Information System (CCRIS), 2018).

Tested on: rodent chemically induced tumor inhibition, incidence and multiplicity
Test: CCRIS tumor inhibitor studies
Conditions: Dose [Inhibitor]: 0

CC(C)=CC[C@@H](O)C1=CC(=O)c2c(O)ccc(O)c2C1=O
tumour outcome (control, treated, inhibition, significance) (Carcinogen: AZOXYMETHANE, 25843-45-2, 0.02% IN DIET IN WK 1-3 OF STUDY FOLLOWED BY BASAL DIET FOR DURATION OF STUDY (STUDY DURATION: 1 YR), Route [Inhibitor]: ORAL, Species: RAT, Strain/Sex: F344/MALE, Target Tissue: Type of Lesion: LARGE INTESTINE: ADENOCARCINOMA, Dose [Carcinogen]: 15 MG/KG BW 1/WK IN WK 1 AND 2 OF STUDY, Promoter: NONE USED): 13/27 (48%), 6/20 (30%), 38%, not significant
tumour outcome (control, treated, inhibition, significance) (Carcinogen: AZOXYMETHANE, 25843-45-2, 0.02% IN DIET IN WK 1-3 OF STUDY FOLLOWED BY BASAL DIET FOR DURATION OF STUDY (STUDY DURATION: 1 YR), Route [Inhibitor]: ORAL, Species: RAT, Strain/Sex: F344/MALE, Target Tissue: Type of Lesion: LARGE INTESTINE: ADENOMA, Dose [Carcinogen]: 15 MG/KG BW 1/WK IN WK 1 AND 2 OF STUDY, Promoter: NONE USED): 6/27 (22%), 4/20 (20%), 9%, not significant
tumour outcome (control, treated, inhibition, significance) (Carcinogen: AZOXYMETHANE, 25843-45-2, 0.02% IN DIET IN WK 1-3 OF STUDY FOLLOWED BY BASAL DIET FOR DURATION OF STUDY (STUDY DURATION: 1 YR), Route [Inhibitor]: ORAL, Species: RAT, Strain/Sex: F344/MALE, Target Tissue: Type of Lesion: SMALL INTESTINE: ADENOCARCINOMA, Dose [Carcinogen]: 15 MG/KG BW 1/WK IN WK 1 AND 2 OF STUDY, Promoter: NONE USED): 6/27 (22%), 1/20 (5%), 77%, not significant

C#CCCCc1ccccc1
tumour outcome (control, treated, inhibition, significance) (Carcinogen: 4-(METHYLNITROSAMINO)-1-(3-PYRIDYL)-1-BUTANONE, 64091-91-4, 5 UMOL IN 0.1 ML CORN OIL ONCE 2 HR PRIOR TO CARCINOGEN DOSE (STUDY DURATION: 16 WK), Route [Inhibitor]: GAVAGE, Species: MOUSE, Strain/Sex: STRAIN-A/FEMALE, Target Tissue: Type of Lesion: LUNG: ADENOMA, Dose [Carcinogen]: 10 UMOL IN 0.1 ML SALINE ONCE, Promoter: NONE USED): 100%, 25%, 75%, p<0.01

C=C[C@H](OC(C)=O)c1ccc(OC(C)=O)cc1
tumour outcome (control, treated, inhibition, significance) (Carcinogen: 4-NITROQUINOLINE-1-OXIDE, 56-57-5, 100 PPM IN DIET FOR 10 WK BEGINNING 1 WK PRIOR TO CARCINOGEN TREATMENT (STUDY DURATION: 32 WK), Route [Inhibitor]: ORAL, Species: RAT, Strain/Sex: F344/MALE, Target Tissue: Type of Lesion: TONGUE: PAPILLOMA OR CARCINOMA, Dose [Carcinogen]: 20 PPM IN DRINKING WATER FOR 8 WK, Promoter: NONE USED): 14/24 (58%), 0/20 (0%), 100%, p<0.001
tumour outcome (control, treated, inhibition, significance) (Carcinogen: 4-NITROQUINOLINE-1-OXIDE, 56-57-5, 100 PPM IN DIET FOR 22 WK BEGINNING 1 WK POST CARCINOGEN TREATMENT (STUDY DURATION: 32 WK), Route [Inhibitor]: ORAL, Species: RAT, Strain/Sex: F344/MALE, Target Tissue: Type of Lesion: TONGUE: PAPILLOMA OR CARCINOMA, Dose [Carcinogen]: 20 PPM IN DRINKING WATER FOR 8 WK, Promoter: NONE USED): 14/24 (58%), 0/20 (0%), 100%, p<0.001
tumour outcome (control, treated, inhibition, significance) (Carcinogen: 4-NITROQUINOLINE-1-OXIDE, 56-57-5, 500 PPM IN DIET FOR 10 WK BEGINNING 1 WK PRIOR TO CARCINOGEN TREATMENT (STUDY DURATION: 32 WK), Route [Inhibitor]: ORAL, Species: RAT, Strain/Sex: F344/MALE, Target Tissue: Type of Lesion: TONGUE: PAPILLOMA OR CARCINOMA, Dose [Carcinogen]: 20 PPM IN DRINKING WATER FOR 8 WK, Promoter: NONE USED): 14/24 (58%), 2/23 (9%), 84%, p<0.001
tumour outcome (control, treated, inhibition, significance) (Carcinogen: 4-NITROQUINOLINE-1-OXIDE, 56-57-5, 500 PPM IN DIET FOR 22 WK BEGINNING 1 WK POST CARCINOGEN TREATMENT (STUDY DURATION: 32 WK), Route [Inhibitor]: ORAL, Species: RAT, Strain/Sex: F344/MALE, Target Tissue: Type of Lesion: TONGUE: PAPILLOMA OR CARCINOMA, Dose [Carcinogen]: 20 PPM IN DRINKING WATER FOR 8 WK, Promoter: NONE USED): 14/24 (58%), 0/23 (0%), 100%, p<0.001
tumour outcome (control, treated, inhibition, significance) (Carcinogen: AZOXYMETHANE, 25843-45-2, 0.01% IN DIET FOR 4 WK BEGINNING 1 WK PRIOR TO CARCINOGEN TREATMENT (STUDY DURATION: 38 WK), Route [Inhibitor]: ORAL, Species: RAT, Strain/Sex: F344/MALE, Target Tissue: Type of Lesion: COLON: ADENOCARCINOMA, Dose [Carcinogen]: 15 MG/KG BW 1/WK FOR 3 WK, Promoter: NONE): 70%, 33%, 53%, p<0.03
tumour outcome (control, treated, inhibition, significance) (Carcinogen: AZOXYMETHANE, 25843-45-2, 0.01% IN DIET FOR 34 WK BEGINNING 1 WK POST LAST CARCINOGEN DOSE (STUDY DURATION: 38 WK), Route [Inhibitor]: ORAL, Species: RAT, Strain/Sex: F344/MALE, Target Tissue: Type of Lesion: COLON: ADENOCARCINOMA, Dose [Carcinogen]: 15 MG/KG BW 1/WK FOR 3 WK, Promoter: NONE): 70%, 38%, 46%, not significant
tumour outcome (control, treated, inhibition, significance) (Carcinogen: AZOXYMETHANE, 25843-45-2, 0.02% IN DIET FOR 4 WK BEGINNING 1 WK PRIOR TO CARCINOGEN TREATMENT (STUDY DURATION: 38 WK), Route [Inhibitor]: ORAL, Species: RAT, Strain/Sex: F344/MALE, Target Tissue: Type of Lesion: COLON: ADENOCARCINOMA, Dose [Carcinogen]: 15 MG/KG BW 1/WK FOR 3 WK, Promoter: NONE): 70%, 17%, 76%, p<0.001
tumour outcome (control, treated, inhibition, significance) (Carcinogen: AZOXYMETHANE, 25843-45-2, 0.02% IN DIET FOR 34 WK BEGINNING 1 WK POST LAST CARCINOGEN DOSE (STUDY DURATION: 38 WK), Route [Inhibitor]: ORAL, Species: RAT, Strain/Sex: F344/MALE, Target Tissue: Type of Lesion: COLON: ADENOCARCINOMA, Dose [Carcinogen]: 15 MG/KG BW 1/WK FOR 3 WK, Promoter: NONE): 70%, 6%, 91%, p<0.00003
tumour outcome (control, treated, inhibition, significance) (Carcinogen: AZOXYMETHANE, 25843-45-2, 100 PPM IN DIET FOR 4 WK BEGINNING 1 WK PRIOR TO CARCINOGEN TREATMENT (STUDY DURATION: 38 WK), Route [Inhibitor]: ORAL, Species: RAT, Strain/Sex: F344/MALE, Target Tissue: Type of Lesion: LARGE INTESTINE: TUMOR, Dose [Carcinogen]: 15 MG/KG BW 1/WK FOR 3 WK, Promoter: NONE USED): 12/17 (71%), 7/18 (39%), 45%, not significant
tumour outcome (control, treated, inhibition, significance) (Carcinogen: AZOXYMETHANE, 25843-45-2, 100 PPM IN DIET FOR 4 WK BEGINNING 1 WK PRIOR TO CARCINOGEN TREATMENT (STUDY DURATION: 38 WK), Route [Inhibitor]: ORAL, Species: RAT, Strain/Sex: F344/MALE, Target Tissue: Type of Lesion: SMALL INTESTINE: TUMOR, Dose [Carcinogen]: 15 MG/KG BW 1/WK FOR 3 WK, Promoter: NONE USED): 5/17 (29%), 3/18 (17%), 41%, not significant
tumour outcome (control, treated, inhibition, significance) (Carcinogen: AZOXYMETHANE, 25843-45-2, 100 PPM IN DIET FOR 34 WK BEGINNING 1 WK POST CARCINOGEN TREATMENT (STUDY DURATION: 38 WK), Route [Inhibitor]: ORAL, Species: RAT, Strain/Sex: F344/MALE, Target Tissue: Type of Lesion: LARGE INTESTINE: TUMOR, Dose [Carcinogen]: 15 MG/KG BW 1/WK FOR 3 WK, Promoter: NONE USED): 12/17 (71%), 9/18 (50%), 30%, not significant
tumour outcome (control, treated, inhibition, significance) (Carcinogen: AZOXYMETHANE, 25843-45-2, 100 PPM IN DIET FOR 34 WK BEGINNING 1 WK POST CARCINOGEN TREATMENT (STUDY DURATION: 38 WK), Route [Inhibitor]: ORAL, Species: RAT, Strain/Sex: F344/MALE, Target Tissue: Type of Lesion: SMALL INTESTINE: TUMOR, Dose [Carcinogen]: 15 MG/KG BW 1/WK FOR 3 WK, Promoter: NONE USED): 5/17 (29%), 4/18 (22%), 24%, not significant
tumour outcome (control, treated, inhibition, significance) (Carcinogen: AZOXYMETHANE, 25843-45-2, 500 PPM IN DIET FOR 4 WK BEGINNING 1 WK PRIOR TO CARCINOGEN TREATMENT (STUDY DURATION: 38 WK), Route [Inhibitor]: ORAL, Species: RAT, Strain/Sex: F344/MALE, Target Tissue: Type of Lesion: LARGE INTESTINE: TUMOR, Dose [Carcinogen]: 15 MG/KG BW 1/WK FOR 3 WK, Promoter: NONE USED): 12/17 (71%), 8/19 (42%), 41%, not significant
tumour outcome (control, treated, inhibition, significance) (Carcinogen: AZOXYMETHANE, 25843-45-2, 500 PPM IN DIET FOR 4 WK BEGINNING 1 WK PRIOR TO CARCINOGEN TREATMENT (STUDY DURATION: 38 WK), Route [Inhibitor]: ORAL, Species: RAT, Strain/Sex: F344/MALE, Target Tissue: Type of Lesion: SMALL INTESTINE: TUMOR, Dose [Carcinogen]: 15 MG/KG BW 1/WK FOR 3 WK, Promoter: NONE USED): 5/17 (29%), 5/19 (26%), 10%, not significant
tumour outcome (control, treated, inhibition, significance) (Carcinogen: AZOXYMETHANE, 25843-45-2, 500 PPM IN DIET FOR 34 WK BEGINNING 1 WK POST CARCINOGEN TREATMENT (STUDY DURATION: 38 WK), Route [Inhibitor]: ORAL, Species: RAT, Strain/Sex: F344/MALE, Target Tissue: Type of Lesion: LARGE INTESTINE: TUMOR, Dose [Carcinogen]: 15 MG/KG BW 1/WK FOR 3 WK, Promoter: NONE USED): 12/17 (71%), 4/20 (20%), 72%, p=0.002
tumour outcome (control, treated, inhibition, significance) (Carcinogen: AZOXYMETHANE, 25843-45-2, 500 PPM IN DIET FOR 34 WK BEGINNING 1 WK POST CARCINOGEN TREATMENT (STUDY DURATION: 38 WK), Route [Inhibitor]: ORAL, Species: RAT, Strain/Sex: F344/MALE, Target Tissue: Type of Lesion: SMALL INTESTINE: TUMOR, Dose [Carcinogen]: 15 MG/KG BW 1/WK FOR 3 WK, Promoter: NONE USED): 5/17 (29%), 2/20 (10%), 66%, not significant
